Test results as given in PMC4515084 (Chemmedchem, 2015).

Columns and labels:
[1] = Pharmacokinetic studies in rats
[2] = molecular target: human CYP 3A4 (Homo sapiens, UniProt P08684); test: CYP inhibition assay, pooled human liver microsomes, midazolam substrate; assay type: in vitro ADME
[3] = molecular target: human CYP 2C9 (Homo sapiens, UniProt P11712); test: CYP inhibition assay, pooled human liver microsomes, diclofenac substrate; assay type: in vitro ADME
[4] = tested on: HNE-induced acute lung injury in mice; test: HNE-induced acute lung injury; assay type: in vivo, mouse; details: administered 1 h prior to the HNE noxa
[5] = tested on: PPE-induced acute lung injury in mice; test: PPE-induced acute lung injury; assay type: in vivo, mouse; details: PPE noxa
[6] = molecular target: porcine pancreatic elastase (PPE) (Sus scrofa, UniProt P00772); test: Serine protease selectivity: PPE; assay type: biochemical; details: listed as BAY 85-8501
Chain of porcine pancreatic elastase (PPE) (P00772 27-266): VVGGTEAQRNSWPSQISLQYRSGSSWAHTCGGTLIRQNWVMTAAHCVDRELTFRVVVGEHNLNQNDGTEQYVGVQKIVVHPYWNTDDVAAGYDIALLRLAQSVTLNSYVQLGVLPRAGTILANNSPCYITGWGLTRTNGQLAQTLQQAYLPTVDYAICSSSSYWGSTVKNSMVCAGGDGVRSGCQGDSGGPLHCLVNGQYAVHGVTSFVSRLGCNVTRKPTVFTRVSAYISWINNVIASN

[7] = Solubility; assay type: physicochemical

Chain of human CYP 3A4 (P08684 whole entry): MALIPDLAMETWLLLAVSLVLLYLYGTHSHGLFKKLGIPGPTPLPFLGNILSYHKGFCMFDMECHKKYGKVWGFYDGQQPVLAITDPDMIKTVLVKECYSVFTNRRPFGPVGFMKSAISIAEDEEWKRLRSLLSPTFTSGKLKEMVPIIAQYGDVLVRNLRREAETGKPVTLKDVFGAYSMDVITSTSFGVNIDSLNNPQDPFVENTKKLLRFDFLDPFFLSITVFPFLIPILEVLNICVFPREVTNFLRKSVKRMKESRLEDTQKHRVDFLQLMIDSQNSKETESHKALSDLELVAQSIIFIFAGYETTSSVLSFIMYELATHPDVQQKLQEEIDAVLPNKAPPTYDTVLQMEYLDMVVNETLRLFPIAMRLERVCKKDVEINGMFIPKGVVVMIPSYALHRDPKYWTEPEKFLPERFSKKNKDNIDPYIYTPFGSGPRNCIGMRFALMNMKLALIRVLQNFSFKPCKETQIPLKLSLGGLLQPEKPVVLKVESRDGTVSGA
Chain of human CYP 2C9 (P11712 whole entry): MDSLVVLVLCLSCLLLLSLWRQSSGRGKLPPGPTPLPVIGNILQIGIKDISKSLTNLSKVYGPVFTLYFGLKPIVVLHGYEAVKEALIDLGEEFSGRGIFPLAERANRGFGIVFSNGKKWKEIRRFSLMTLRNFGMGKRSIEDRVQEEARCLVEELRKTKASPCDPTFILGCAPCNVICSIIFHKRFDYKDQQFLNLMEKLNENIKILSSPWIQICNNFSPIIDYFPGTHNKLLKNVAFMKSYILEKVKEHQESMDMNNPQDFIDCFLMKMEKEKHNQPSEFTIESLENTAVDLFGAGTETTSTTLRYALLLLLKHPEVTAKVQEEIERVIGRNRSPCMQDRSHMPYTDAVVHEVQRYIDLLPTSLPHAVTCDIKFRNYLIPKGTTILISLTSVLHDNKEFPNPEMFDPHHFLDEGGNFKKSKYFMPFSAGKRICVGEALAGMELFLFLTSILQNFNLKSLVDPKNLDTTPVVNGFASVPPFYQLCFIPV

CC1=C(C(=O)OCCO)[C@@H](c2ccc(C#N)cc2)NC(=O)N1c1cccc(C(F)(F)F)c1 [Compound 17]
clearance ([1]; rat, in vivo, iv, 0.3 mg kg^−1): 35 mL/min/kg | clearance ([1]; rodents / rats): medium clearance

CC(=O)C1=C(C)N(c2cccc(C(F)(F)F)c2)C(=O)N[C@@H]1c1ccc(C#N)nc1 [Compound 20]
clearance ([1]; rat, in vivo, iv, 0.3 mg kg^−1): 33.3 mL/min/kg | clearance ([1]; rodents / rats): medium clearance

CC1=C(C#N)[C@@H](c2ccc(C#N)cc2)N(CC(N)=O)C(=O)N1c1cccc(C(F)(F)F)c1 [Compound 23]
inhibition toward CYP 3A4 ([2]; up to a concentration of 50 μM): no observable inhibition | inhibition toward CYP 2C9 ([3]; up to a concentration of 50 μM): no observable inhibition

CC1=C(C#N)[C@@H](c2ccc(C#N)cc2S(C)(=O)=O)N(C)C(=O)N1c1cccc(C(F)(F)F)c1 [Compound 29, (4S)-4-[4-Cyano-2-(methylsulfonyl)phenyl]-3,6-dimethyl-2-oxo-1-[3-(trifluoromethyl)phenyl]-1,2,3,4-tetrahydropyrimidine-5-carbonitrile]
development of lung injury and subsequent inflammation [4]: completely prevented | clearance ([1]; rat, in vivo, iv, 0.3 mg kg^−1): 8.33 mL/min/kg | primary lung injury [5]: could not prevent | effect on PPE [6]: no inhibitory effect

CC1=C(C#N)[C@@H](c2ccc(C#N)cc2S(C)(=N)=O)N(C)C(=O)N1c1cccc(C(F)(F)F)c1 (stereo partly shown) [Compound 30]
solubility [7]: improved solubility | IC50 [2]: > 50 µM | IC50 [3]: > 50 µM
